Measurements reported in paper PMC9785850, “Encorafenib Acts as a Dual-Activity Chemosensitizer through Its Inhibitory Effect on ABCC1 Transporter In Vitro and Ex Vivo” (Pharmaceutics, 2022).

Columns and labels:
P-glycoprotein (ABCB1) = biological target: T1, P-glycoprotein (ABCB1) (Homo sapiens, UniProt P08183); assay: daunorubicin accumulation assay in MDCKII-ABCB1 cells, flow cytometry; assay type: cell-based
T1 construct: human ABCB1 overexpressed in MDCKII cells

ABCC1 = biological target: T2, ABCC1 (Homo sapiens, UniProt P33527); assay: daunorubicin accumulation assay in MDCKII-ABCC1 cells, flow cytometry; assay type: cell-based
T2 construct: human ABCC1 overexpressed in MDCKII cells
T2 sequence (P33527 whole entry): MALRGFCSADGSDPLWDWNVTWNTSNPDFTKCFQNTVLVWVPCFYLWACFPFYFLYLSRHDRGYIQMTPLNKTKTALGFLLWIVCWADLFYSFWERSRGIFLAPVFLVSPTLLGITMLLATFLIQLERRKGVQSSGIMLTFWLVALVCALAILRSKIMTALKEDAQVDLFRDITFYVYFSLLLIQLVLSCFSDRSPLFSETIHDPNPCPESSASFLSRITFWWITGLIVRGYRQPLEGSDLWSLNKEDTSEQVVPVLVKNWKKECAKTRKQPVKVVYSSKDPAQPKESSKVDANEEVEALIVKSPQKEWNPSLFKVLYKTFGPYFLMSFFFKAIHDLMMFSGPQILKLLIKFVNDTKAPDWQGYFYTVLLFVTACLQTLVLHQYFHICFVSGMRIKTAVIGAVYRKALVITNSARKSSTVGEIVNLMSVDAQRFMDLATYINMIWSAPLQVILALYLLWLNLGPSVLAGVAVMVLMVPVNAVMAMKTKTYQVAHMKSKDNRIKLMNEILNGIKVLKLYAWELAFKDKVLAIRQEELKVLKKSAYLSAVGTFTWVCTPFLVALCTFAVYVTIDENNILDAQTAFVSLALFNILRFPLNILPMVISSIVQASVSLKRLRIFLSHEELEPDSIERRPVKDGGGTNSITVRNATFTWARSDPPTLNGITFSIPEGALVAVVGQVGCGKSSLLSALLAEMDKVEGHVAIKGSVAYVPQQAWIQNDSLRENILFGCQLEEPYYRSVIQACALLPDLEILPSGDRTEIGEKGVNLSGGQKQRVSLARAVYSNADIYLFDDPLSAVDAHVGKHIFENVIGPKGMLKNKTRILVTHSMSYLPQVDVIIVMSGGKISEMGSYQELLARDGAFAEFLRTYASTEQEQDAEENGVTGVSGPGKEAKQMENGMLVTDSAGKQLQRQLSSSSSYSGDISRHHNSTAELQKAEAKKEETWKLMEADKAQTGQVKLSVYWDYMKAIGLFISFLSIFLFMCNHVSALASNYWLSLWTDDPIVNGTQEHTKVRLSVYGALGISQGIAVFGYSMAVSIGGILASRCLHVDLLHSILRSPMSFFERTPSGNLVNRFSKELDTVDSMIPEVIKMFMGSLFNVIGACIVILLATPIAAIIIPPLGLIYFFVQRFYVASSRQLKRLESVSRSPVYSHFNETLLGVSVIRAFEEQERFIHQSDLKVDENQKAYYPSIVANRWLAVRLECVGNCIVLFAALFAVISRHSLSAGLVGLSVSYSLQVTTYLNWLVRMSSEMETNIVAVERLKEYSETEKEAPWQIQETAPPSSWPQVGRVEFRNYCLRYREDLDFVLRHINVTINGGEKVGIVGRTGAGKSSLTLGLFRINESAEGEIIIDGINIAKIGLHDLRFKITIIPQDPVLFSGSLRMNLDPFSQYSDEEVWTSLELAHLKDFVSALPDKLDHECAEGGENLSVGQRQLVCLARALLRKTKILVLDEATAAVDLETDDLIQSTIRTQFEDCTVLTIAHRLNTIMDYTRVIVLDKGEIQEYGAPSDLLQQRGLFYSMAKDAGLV

T1 sequence (P08183 whole entry): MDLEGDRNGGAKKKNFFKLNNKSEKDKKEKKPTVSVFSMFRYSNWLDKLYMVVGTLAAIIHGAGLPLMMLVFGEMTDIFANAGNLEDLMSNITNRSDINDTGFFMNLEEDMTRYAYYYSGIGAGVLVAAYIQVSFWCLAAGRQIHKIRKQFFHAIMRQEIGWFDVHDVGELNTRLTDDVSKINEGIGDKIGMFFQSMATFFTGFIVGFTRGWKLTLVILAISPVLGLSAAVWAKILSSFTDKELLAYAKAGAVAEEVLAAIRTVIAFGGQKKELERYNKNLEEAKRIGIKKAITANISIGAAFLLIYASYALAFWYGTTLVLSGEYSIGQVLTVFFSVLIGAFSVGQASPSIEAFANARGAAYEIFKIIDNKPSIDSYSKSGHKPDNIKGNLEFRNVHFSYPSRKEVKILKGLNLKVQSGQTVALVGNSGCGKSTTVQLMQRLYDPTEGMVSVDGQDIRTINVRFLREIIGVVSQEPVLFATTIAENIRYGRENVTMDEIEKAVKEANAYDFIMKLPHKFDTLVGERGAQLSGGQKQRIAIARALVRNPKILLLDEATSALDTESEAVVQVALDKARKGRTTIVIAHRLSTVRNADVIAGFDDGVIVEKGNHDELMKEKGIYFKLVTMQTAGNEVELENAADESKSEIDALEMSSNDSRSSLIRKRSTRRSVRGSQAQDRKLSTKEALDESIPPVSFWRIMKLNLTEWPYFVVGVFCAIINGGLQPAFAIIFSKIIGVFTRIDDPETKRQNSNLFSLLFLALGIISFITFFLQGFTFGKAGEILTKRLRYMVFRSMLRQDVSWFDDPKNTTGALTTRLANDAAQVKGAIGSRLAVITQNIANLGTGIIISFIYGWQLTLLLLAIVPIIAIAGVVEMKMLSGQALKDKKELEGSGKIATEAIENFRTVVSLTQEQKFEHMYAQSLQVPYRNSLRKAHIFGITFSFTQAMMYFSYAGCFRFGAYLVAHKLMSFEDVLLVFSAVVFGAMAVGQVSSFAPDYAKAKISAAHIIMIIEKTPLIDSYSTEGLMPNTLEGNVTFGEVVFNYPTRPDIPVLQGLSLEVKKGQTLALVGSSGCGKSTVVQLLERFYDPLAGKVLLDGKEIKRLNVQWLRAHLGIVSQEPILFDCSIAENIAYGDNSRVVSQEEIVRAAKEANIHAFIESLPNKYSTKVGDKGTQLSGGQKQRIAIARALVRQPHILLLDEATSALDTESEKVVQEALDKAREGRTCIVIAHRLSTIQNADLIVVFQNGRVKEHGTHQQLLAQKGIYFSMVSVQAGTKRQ

COC(=O)N[C@@H](C)CNc1nccc(-c2cn(C(C)C)nc2-c2cc(Cl)cc(NS(C)(=O)=O)c2F)n1 [encorafenib]
IC50 (P-glycoprotein (ABCB1)): 25.1 µM | IC50 (ABCC1): 8.63 µM
